In ChEMBL document CHEMBL2346626, “PF-04859989 as a template for structure-based drug design: identification of new pyrazole series of irreversible KAT II inhibitors with improved lipophilic efficiency” (Bioorg Med Chem Lett, 2013):

What was measured:
[1] = biological target: T1, Kynurenine/alpha-aminoadipate aminotransferase, mitochondrial (Homo sapiens, UniProt Q8N5Z0); assay: Ratio of Kinact to Ki for inhibition of human KAT2
Target sequence in this assay (Q8N5Z0 30-425 limits assumed): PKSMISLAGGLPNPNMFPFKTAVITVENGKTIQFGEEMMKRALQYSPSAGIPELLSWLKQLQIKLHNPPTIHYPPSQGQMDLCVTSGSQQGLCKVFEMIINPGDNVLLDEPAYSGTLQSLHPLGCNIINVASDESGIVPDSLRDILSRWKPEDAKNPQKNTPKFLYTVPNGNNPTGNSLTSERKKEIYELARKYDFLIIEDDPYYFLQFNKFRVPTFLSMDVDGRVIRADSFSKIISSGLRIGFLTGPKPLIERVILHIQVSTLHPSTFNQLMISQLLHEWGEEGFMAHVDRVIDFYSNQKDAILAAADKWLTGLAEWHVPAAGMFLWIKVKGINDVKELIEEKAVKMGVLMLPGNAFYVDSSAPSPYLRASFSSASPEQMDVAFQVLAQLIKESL

[2] = biological target: T1, Kynurenine/alpha-aminoadipate aminotransferase, mitochondrial; assay: Inhibition of human KAT2 using L-kynurenine as substrate measured every 5 mins for 16 hours by UV-visible spectra analysis
Target sequence in this assay (Q8N5Z0 30-425 limits assumed): as above

[3] = biological target: T1, Kynurenine/alpha-aminoadipate aminotransferase, mitochondrial; assay: Inhibition of human KAT2 using L-kynurenine as substrate after 15 to 20 hrs by UV-visible spectra analysis
Target sequence in this assay (Q8N5Z0 whole entry): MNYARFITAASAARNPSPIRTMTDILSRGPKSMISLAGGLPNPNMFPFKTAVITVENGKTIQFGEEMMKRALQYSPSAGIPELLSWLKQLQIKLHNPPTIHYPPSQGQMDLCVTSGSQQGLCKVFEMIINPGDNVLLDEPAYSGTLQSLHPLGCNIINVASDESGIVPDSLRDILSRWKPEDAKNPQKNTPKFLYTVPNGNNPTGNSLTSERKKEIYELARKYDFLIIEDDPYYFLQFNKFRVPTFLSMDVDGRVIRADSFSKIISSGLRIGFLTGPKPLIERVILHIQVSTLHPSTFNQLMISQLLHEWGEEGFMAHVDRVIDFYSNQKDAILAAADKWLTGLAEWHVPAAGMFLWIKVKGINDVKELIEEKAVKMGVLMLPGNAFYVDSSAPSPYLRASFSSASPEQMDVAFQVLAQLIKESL

[4] = Intrinsic apparent clearance in human liver microsomes; format: ADME, Microsome; details: read-out: CLH(app)

| SMILES | Ratio [1] [M⁻¹ s⁻¹] | Kinact [2] [min⁻¹] | IC50 [3] [nM] | Ki [3] [nM] | microsomal CLint [4] [µL/min/mg] |
| --- | --- | --- | --- | --- | --- |
| N[C@H]1Cc2cn(Cc3ccccc3)nc2N(O)C1=O | 10500 | 0.0147 | 47 | 23 | – |
| N[C@H]1Cc2cn(-c3ccccc3)nc2N(O)C1=O | 112000 | 0.0125 | 25 | 1.9 | < 8 |
| N[C@H]1Cc2c(cnn2Cc2ccccc2)N(O)C1=O | 16200 | 0.0116 | – | 12 | – |
| COc1cccc(Cc2nn(C)c3c2C[C@H](N)C(=O)N3O)c1 | 8710 | 0.0116 | – | 22 | – |
| N[C@H]1Cc2nn(-c3ccccc3)cc2N(O)C1=O | 8580 | 0.0144 | 85 | 41 | – |
| Cn1nc(Cc2ccccc2)c2c1N(O)C(=O)[C@@H](N)C2 | 16000 | 0.0349 | – | 32 | – |
| COc1cc2c(cc1Cc1ccccc1)C[C@H](N)C(=O)N2O | 129000 | 0.0146 | 37 | 1.6 | 26 |
| N[C@H]1Cc2ccccc2N(O)C1=O | – | – | – | 14 | – |
| N[C@H]1Cc2c(c(C(F)(F)F)nn2Cc2ccccc2)N(O)C1=O | 7920 | 0.0227 | 74 | 48 | – |
